US5972923A, “Methods and compositions to enhance the cytoprotective effects of polycyclic phenolic compounds through the synergistic interaction with anti-oxidants” (priority 1998, dated 1999)
Where two headings read alike, the source gives them in different places. Blank lines part the entries; values can stand above or below the molecule they belong to.

Experiments:
HT-22 cells [1] = assay: Effects of 17β-estradiol and its BSA conjugate on βAP 25-35 induced toxicity on HT-22 cells (trypan blue); conditions: for Live Cell Number ± SEM: 3.25 μM GSH, 48 h
Protocol: Experiments were initiated by plating cells in Nunc^X 24 well plate and cells were allowed to attach for 4 h before treatment.

SK-N-SH cells [2] = assay: Dose response of neuroprotection by GSH or 17β-estradiol against βAP 25-35 in SK-N-SH cells (trypan blue); type: cell-based, human; conditions: for EC50: Homo sapiens, SK-N-SH
Protocol: Media was changed three times weekly.
Cells were suspended by repeated pipetting.
After 72 hours incubation, live cells were determined with Trypan Blue exclusion.
After 72 hours incubation, the cells were stained with Trypan Blue. […] (FIG. 3).

[3] = tested on: rat primary cortical neurons; assay: Neuroprotection against βAP 25-35 in rat primary cortical neurons (LIVE/DEAD kit); conditions: for EC50: Rattus norvegicus, Primary cortical neuron
Protocol: Primary Rat Cortical Culture: Primary neuronal cultures were prepared according to the method used by Chandler et al. Alcoholism: Clinical and Experimental Research, 17 (1993) 54-60.
Once treatments were added, primary cultures were incubated for an additional 24 h and viability determined using the LIVE/DEAD® viability/cytotoxicity kit (Molecular Probes, Eugene, Oreg.) according to manufacturer's instructions. Live cells are distinguished by the presence of intracellular esterase activity which cleaves the calcein AM dye, producing a bright green fluorescence when excited. Ethidium homodimer enters cells with damaged membranes, and upon binding to nucleic acids, produces a red fluorescence. Both dyes are excited at 485 nm, and cultures plates were viewed with a fluorescent microscope (Nikon Diaphot-300). Three random fields were photographed, and the average number of live cells per field was determined by counting the number of bright green cells.

HT-22 cells [4] = assay: Effects of estratrienes with and without glutathione on neurotoxicity of βAP 25-35 in HT-22 cells; conditions: for neuroprotection: concurrent treatment with βAP 25-35; for EC50: Mus musculus; for decrease in cell viability: β-AP (25-35)
Protocol: Experiments were initiated by plating cells in Nunc^X 24 well plate cells were allowed to attach for 4 h before treatment. […] After 48 h cells were suspended and viability determined using the trypan blue dye exclusion method (Tennant 1964). Steroids and βAP were prepared as previously described (Green et al. 1996). ED50 values were analyzed by a two way Analysis of Variance. Differences among effects were determined by a Scheffe's post hoc analysis with a p<0.05 considered significant. […] Data are normalized to the βAP free control group as 100% protection and the βAP alone group as 0% protection.

SK-N-SH cells [5] = assay: Live cell number of SK-N-SH cells with βAP 25-35 induced toxicity (trypan blue exclusion), 17β-estradiol and anti-oxidants; conditions: for interaction with estrogen: combination with estrogen
[6] = βAP 25-35 (20 μM) + TRT (anti-oxidant), 72 h
[7] = βAP 25-35 (20 μM) + βE2 + TRT (anti-oxidant), 72 h
[8] = HT-22, read-out: ED50, absence of GSH
[9] = HT-22, read-out: ED50, presence of GSH

Molecule: 17β-estradiol-6-(carboxymethyl) oxime: BSA [β17-E2:BSA]
ability to protect HT22 cells from βAP (25-35) toxicity (HT-22 cells [1]; BSA conjugate containing 20 μM 17β-estradiol, presence of GSH): abolished the ability of the steroid to protect HT22 cells
Live Cell Number ± SEM (HT-22 cells [1]; βAP (20 μM) + 20 μM β17-E2:BSA): 216 ± 17 ×10^3 cells

Molecule: C[C@]12CC[C@@H]3c4ccc(O)cc4CC[C@H]3[C@@H]1CC[C@@H]2O [17β-estradiol]
neuroprotection (SK-N-SH cells [2]; 200 nM 17β-estradiol, absence of glutathione): Neuroprotection was observed
EC50 (SK-N-SH cells [2]; 72 h, read-out: ED50 of 17β-estradiol, Aβ 25-35 (20 μM), absence of glutathione, 72 h): 100 nM
EC50 (SK-N-SH cells [2]; 72 h, read-out: ED50 of 17β-estradiol, Aβ 25-35 (20 μM), presence of glutathione (3.25 μM), 72 h): 0.02 nM
EC50 (SK-N-SH cells [2]; read-out: EC50 (17β-estradiol dose response, FIG. 3), βAP 25-35 (20 μM), without GSH): 126 ± 87.8 nM
EC50 ([3]; absence of GSH): 68.1 ± 79 nM
EC50 ([3]; presence of GSH): 4.3 ± 5.9 nM
neuroprotection (HT-22 cells [4]): dose-dependent neuroprotection
live cell number (SK-N-SH cells [5]; βAP + βE2, Ascorbic Acid column): 144 ± 9
live cell number (SK-N-SH cells [5]; βAP + βE2, GSH column): 357 ± 19
live cell number (SK-N-SH cells [5]; βAP + βE2, GSSG column): 357 ± 19

Molecule: O=C1O[C@H]([C@@H](O)CO)C(O)=C1O [Ascorbic Acid, ascorbic acid]
interaction with estrogen (SK-N-SH cells [5]): no apparent interactions
live cell number (SK-N-SH cells [5]; [6]): 124 ± 6
live cell number (SK-N-SH cells [5]; [7]): 188 ± 11

Molecule: C[C@@]12CCC[C@H]1[C@@H]1CCc3cc(O)ccc3[C@H]1CC2 [E-3-ol, estratriene-3-ol]
EC50 (HT-22 cells [4]; [8]): 3680 nM
EC50 (HT-22 cells [4]; [9]): 14 nM

EC50 (SK-N-SH cells [2]; 72 h, read-out: ED50 of glutathione, βAP 25-35 (20 μM), absence of 17β-estradiol, 72 h): 32500 nM
EC50 (SK-N-SH cells [2]; 72 h, read-out: ED50 of glutathione, βAP 25-35 (20 μM), presence of 17β-estradiol (2 nM), 72 h): 325 nM
EC50 (SK-N-SH cells [2]; read-out: EC50 (GSH dose response, FIG. 2), βAP 25-35 (20 μM), without 17β-estradiol): 82500 ± 60400 nM
EC50 (SK-N-SH cells [2]; read-out: EC50 (GSH dose response, FIG. 2), βAP 25-35 + 17β-estradiol (2 nM)): 41 ± 25 nM
Molecule: N[C@@H](CCC(=O)N[C@@H](CS)C(=O)NCC(=O)O)C(=O)O [GSH, glutathione]
protection from β-AP toxicity (SK-N-SH cells [2]; GSH 325 μM): significant protection
neuroprotective effect (SK-N-SH cells [2]; glutathione 3.25 μM, absence of 17β-estradiol): little neuroprotective effect
fold greater neuroprotectivity than with glutathione alone (SK-N-SH cells [2]; with 17β-estradiol (2 nM)): 1000 fold
effect on β-AP (25-35) induced toxicity (HT-22 cells [4]; dose of GSH used in these studies, by itself): no effect
decrease in cell viability (HT-22 cells [4]; presence of 3.25 pM GSH (so in the source)): 55±3%
live cell number (SK-N-SH cells [5]; [6]): 369 ± 7
live cell number (SK-N-SH cells [5]; [7]): 534 ± 16

Molecule: O=C(O)CCCCC1CCSS1 (stereo not drawn) [Lipoic Acid, Lipoic acid]
interaction with estrogen (SK-N-SH cells [5]): no apparent interactions
live cell number (SK-N-SH cells [5]; [6]): 406 ± 7
live cell number (SK-N-SH cells [5]; [7]): 416 ± 10

Molecule: NCCS(=O)(=O)O [Taurine, 2-aminoethanoic acid]
interaction with estrogen (SK-N-SH cells [5]): no apparent interactions
live cell number (SK-N-SH cells [5]; [6]): 402 ± 9
live cell number (SK-N-SH cells [5]; [7]): 439 ± 11

Molecule: CC(=O)Oc1c(C)c(C)c2c(c1C)CCC(C)(CCCC(C)CCCC(C)CCCC(C)C)O2 (stereo not drawn) [Tocopherol, α-tocopherol acetate]
interaction with estrogen (SK-N-SH cells [5]): no apparent interactions
live cell number (SK-N-SH cells [5]; [6]): 448 ± 12
live cell number (SK-N-SH cells [5]; [7]): 456 ± 14

Molecule: C[C@]12CC[C@@H]3c4ccc(O)cc4CC[C@H]3[C@@H]1CC[C@H]2O [α-estradiol, 17 α-estradiol]
EC50 (HT-22 cells [4]; [8]): 1010 nM
EC50 (HT-22 cells [4]; [9]): 6 nM
neuroprotection (HT-22 cells [4]): dose-dependent neuroprotection
synergistic effect (HT-22 cells [4]; with GSH, FIG. 5): marked synergistic effect

Molecule: βAP 25-35: neurotoxic β-amyloid protein, a peptide of 10 amino acids (amino acids 25-35) (GSNKGAIIGLM; Amyloid-beta protein 42; UniProt P05067 696-706, looked up, fragment)
reduction in the average number of viable cells per field ([3]; βAP 25-35 (10 μM), absence of GSH, 24 h): 39%
cells killed (HT-22 cells [4]; exposure to βAP 25-35): 50-60%
decrease in cell viability (HT-22 cells [4]; absence of GSH): 54±4%
Live Cell Number ± SEM (HT-22 cells [1]; βAP (20 μM) alone): 189 ± 11 ×10^3 cells
live cell number (SK-N-SH cells [5]; βAP alone, Ascorbic Acid column): 118 ± 9
live cell number (SK-N-SH cells [5]; βAP alone, GSH): 331 ± 17
live cell number (SK-N-SH cells [5]; βAP alone, GSSG column): 331 ± 17
live cell number (SK-N-SH cells [5]; βAP alone, Lipoic Acid column): 408 ± 10
live cell number (SK-N-SH cells [5]; βAP alone, Taurine column): 408 ± 10
live cell number (SK-N-SH cells [5]; βAP alone, Tocopherol column): 366 ± 24
